Results from patent publication US20090036540A1, “Guanylhydrazones in Methods of Treatment or Diagnosis as Modulators of Signal Transduction” (Cytokine PharmaSciences, Inc., priority 2003, published 2009).

System: Peripheral Blood Mononuclear Cells
Experiment: PepChip kinome array: in vitro phosphorylation of peptide array by lysates of LPS-stimulated PBMCs
Type: cell-based, human
Details: PBMC lysate, 1.0 μM CNI-1493, 100 ng/ml LPS
Method: Peripheral Blood Mononuclear Cells (PBMCs) were isolated from peripheral blood from healthy volunteers using standard density-gradient centrifugation over Ficoll-Paque Plus (Amersham Pharmacia Biotech AB, Uppsala, Sweden) after washing in resuspension in IMDM supplemented with 10% FBS, penicillin, streptomycin and amphotericin (hereafter referred to as complete IMDM).
For kinome array samples, 10^7 PBMCs were suspended in 5 ml media (IMDM supplemented with 1.0% human serum). LPS stimulation consisted of a […] (37° C., 5% CO2) with 100 ng/ml LPS (E. coli, serotype 0111:B4). CNI treated PBMCs were maintained in media dosed with 1.0 μM CNI-1493 (Cytokine PharmaSciences, Inc.) 1 hour before and during incubation for LPS stimulation. Stimulations were terminated by an ice-cold PBS wash. PBMCs were lysed in 200 μl cell lysis buffer (20 mM Tris-HCl (pH 7.5), 150 mM NaCl, 1 mM Na2EDTA, 1 mM EGTA, 1% Triton, 2.5 mM sodium pyrophosphate, 1 mM MgCl2, 1 mM beta-glycerophosphate, 1 mM Na3VO4, 1 mM NaF, 1 μg/ml leupeptin, 1 μg/ml aprotinin, 1 mM PMSF) and the volume of the cell lysate were equalised with dH2O. The cell lysates were subsequently cleared on a 0.22 μm filter. PepChip incubation mix was produced by adding 10 μl of filter-cleared activation mix (50% glycerol, 50 μM ATP, 0.05% v/v Brij-35, 0.25 mg/ml BSA, ^33P-γ-ATP (1000 kBq)). Next, the PepChip mix is added onto the chip and the chip is kept at 37° C. in a humidified stove for 90 minutes. Subsequently, the PepChip was washed once with TBST, twice in 2M NaCl and twice in demineralised H2O and air-dry the PepChip slips. The experiments were performed three times in duplicate. The average inter-experimental variance in relative values was less than 5% for all spots.
The chips were exposed to a phosphoimager plate for 72 hours and the spots were analysed on AIDA analysing software. For graphical visualisation of the spots in FIG. 2 the data of four arrays was averaged to eliminate false positives.

- LPS + CNI: peptide phosphorylation, Kinase PKA, Substrate P450 (Control 2412, LPS 19980): 265
SMILES: C/C(=N\NC(=N)N)c1cc(NC(=O)CCCCCCCCC(=O)Nc2cc(/C(C)=N/NC(=N)N)cc(/C(C)=N/NC(=N)N)c2)cc(/C(C)=N/NC(=N)N)c1 [Semapimod]
- LPS + CNI: peptide phosphorylation, Kinase p34cdc2, Substrate Vimentin (Control 192, LPS 214): 300
- LPS + CNI: peptide phosphorylation, Kinase CKII, Substrate Lamin B R (Control 214, LPS 1736): 250
- LPS + CNI: peptide phosphorylation, Kinase p34cdc2, Substrate c-Src (Control 230, LPS 248): 270
- LPS + CNI: peptide phosphorylation, Kinase CKII, Substrate TOPII (Control 231, LPS 900): 900
- LPS + CNI: peptide phosphorylation, Kinase CKII, Substrate Lamin D (Control 242, LPS 822): 320
- LPS + CNI: peptide phosphorylation, Kinase Auto, Substrate PKG (Control 246, LPS 8100): 320
- LPS + CNI: peptide phosphorylation, Kinase GRK, Substrate Tau (Control 248, LPS 230): 250
- LPS + CNI: peptide phosphorylation, Kinase JAK, Substrate STAT1a/b (Control 248, LPS 7704): 231
- LPS + CNI: peptide phosphorylation, Kinase Cdc2, Substrate CKII (Control 268, LPS 1728): 265
- LPS + CNI: peptide phosphorylation, Kinase CytoK Rec, Substrate FPS (Control 270, LPS 5512): 265
- LPS + CNI: peptide phosphorylation, Kinase CK II?, Substrate TOPII (Control 274, LPS 280): 300
- LPS + CNI: peptide phosphorylation, Kinase PKA, Substrate MBP (Control 280, LPS 1250): 265
- LPS + CNI: peptide phosphorylation, Kinase Scr-family?, Substrate PTP-2C (Control 287, LPS 5960): 250
- LPS + CNI: peptide phosphorylation, Kinase PKA, Substrate HSP27 (Control 288, LPS 1072): 298
- LPS + CNI: peptide phosphorylation, Kinase PKC, Substrate HSP27 (Control 291, LPS 280): 300
- LPS + CNI: peptide phosphorylation, Kinase PKA, Substrate v-Rel (Control 291, LPS 2574): 291
- LPS + CNI: peptide phosphorylation, Kinase GSK3, Substrate GS (Control 312, LPS 320): 250
- LPS + CNI: peptide phosphorylation, Kinase p34cdc2, Substrate CKII (Control 320, LPS 560): 291
- LPS + CNI: peptide phosphorylation, Kinase PKA, Substrate Tau (Control 340, LPS 340): 250
- LPS + CNI: peptide phosphorylation, Kinase PKA, Substrate c-Rel (Control 421, LPS 250): 261
- LPS + CNI: peptide phosphorylation, Kinase p34cdc2, Substrate AP-1 (Control 460, LPS 548): 274
- LPS + CNI: peptide phosphorylation, Kinase PKA, Substrate MBP (Control 536, LPS 822): 248
- LPS + CNI: peptide phosphorylation, Kinase CaM-II, Substrate MBP (Control 600, LPS 265): 680
- LPS + CNI: peptide phosphorylation, Kinase PKA, Substrate GS (Control 795, LPS 7980): 340
- LPS + CNI: peptide phosphorylation, Kinase PKA/Ca2+, Substrate Trp-5-MO (Control 1164, LPS 23925): 1305
- LPS + CNI: peptide phosphorylation, Kinase PKA, Substrate GS (Control 1440, LPS 1020): 3450
- LPS + CNI: peptide phosphorylation, Kinase PKC, Substrate Lamin B1 (Control 2016, LPS 268): 1072
- LPS + CNI: peptide phosphorylation, Kinase PKC, Substrate MBP (Control 2376, LPS 198): 319
- LPS + CNI: peptide phosphorylation, Kinase PKC, Substrate ACC-a (Control 2750, LPS 10692): 861
- LPS + CNI: peptide phosphorylation, Kinase CKII, Substrate TOPII (Control 3836, LPS 320): 291
- LPS + CNI: peptide phosphorylation, Kinase Src, Substrate Annexin2 (Control 4438, LPS 8745): 287
- LPS + CNI: peptide phosphorylation, Kinase PKC, Substrate EIF4E (Control 4494, LPS 41272): 6699
- LPS + CNI: peptide phosphorylation, Kinase and Substrate not given (Control 4960, LPS 530): 254
- LPS + CNI: peptide phosphorylation, Kinase CKI, Substrate GS (Control 5616, LPS 13386): 300
- LPS + CNI: peptide phosphorylation, Kinase CaM-II, Substrate Vimentin (Control 6930, LPS 4147): 248
- LPS + CNI: peptide phosphorylation, Kinase Lck/Fyn, Substrate MHC-I (Control 7040, LPS 1370): 230
